Results from US20240109873A1, “ANTAGONISTS OF THE MUSCARINIC ACETYLCHOLINE RECEPTOR M4” (Vanderbilt University, priority 2020, published 2024).
pIC50: −log10 of the molar value.

Target: T1, human mAChR M4 (Homo sapiens, UniProt P08173)
T1 construct: expressed in transfected cells; host or cells: CHO-K1 (ATCC), co-transfected with chimeric G protein Gqi5
T1 sequence (P08173 1-479): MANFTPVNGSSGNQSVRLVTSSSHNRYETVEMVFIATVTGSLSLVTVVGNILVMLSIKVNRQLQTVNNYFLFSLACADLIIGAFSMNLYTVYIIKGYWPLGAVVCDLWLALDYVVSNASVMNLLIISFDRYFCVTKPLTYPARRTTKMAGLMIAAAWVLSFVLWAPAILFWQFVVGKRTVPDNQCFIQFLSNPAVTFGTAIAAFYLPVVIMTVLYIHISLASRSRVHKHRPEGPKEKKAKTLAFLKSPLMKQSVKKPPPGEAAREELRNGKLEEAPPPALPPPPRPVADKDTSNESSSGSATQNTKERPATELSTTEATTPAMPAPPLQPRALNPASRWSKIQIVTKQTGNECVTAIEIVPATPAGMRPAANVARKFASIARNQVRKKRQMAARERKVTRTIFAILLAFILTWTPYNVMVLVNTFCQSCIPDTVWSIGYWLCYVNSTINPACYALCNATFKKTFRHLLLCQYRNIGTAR
Assay: mAChR M4 cell-based functional assay (calcium flux, antagonism of EC80 acetylcholine response, M4/Gqi5/CHO-K1 cells)
Conditions: for remaining activity at 30 µM: CHO-K1, % ACh maximum at 30 μM, read-out: Human M4 Emin; for pIC50: decrease of the response elicited by an EC80 concentration of acetylcholine, CHO-K1 cells, Gqi5
Experimental: Human or rat M4 cDNA, along with the chimeric G protein Gqi5, were transfected into Chinese hamster ovary (CHO-K1) cells purchased from the American Type Culture Collection using Lipofectamine2000. M4/Gqi5/CHO cells were grown in Ham's F-12 medium containing 10% heat-inactivated fetal bovine serum (FBS), 20 mM HEPES, 500 μg/mL G418 sulfate, and 200 μg/mL Hygromycin B.
For high throughput measurement of agonist-evoked increases in intracellular calcium, CHO-K1 cells stably expressing muscarinic receptors were plated in growth medium lacking G418 and hygromycin at 15,000 cells/20 μL/well in Greiner 384-well black-walled, tissue culture (TC)-treated, clear-bottom plates (VWR). Cells were incubated overnight at 37° C. and 5% CO2. The next day, cells were washed using an ELX 405 (BioTek) with assay buffer; the final volume was then aspirated to 20 μL. Next, 20 μL of a 2.3 μM stock of Fluo-4/acetoxymethyl ester (Invitrogen, Carlsbad, CA), prepared as a 2.3 mM stock in DMSO and mixed in a 1:1 ratio with 10% (w/v) Pluronic F-127 and diluted in assay buffer, was added to the wells and the cell plates were incubated for 50 min at 37° C. and 5% CO2. Dye was removed by washing with the ELX 405 and the final volume was aspirated to 20 μL. Compound master plates were formatted in a 10-point concentration-response curve (CRC) format (1:3 dilutions) in 100% DMSO with a starting concentration of 10 or 1 mM using a BRAVO liquid handler (Agilent). Test compound CRCs were then transferred to daughter plates (240 nL) using the Echo acoustic plate reformatter (Labcyte, Sunnyvale, CA) and then diluted into assay buffer (40 μL) to a 2× stock using a Thermo Fisher Combi (Thermo Fisher Scientific, Waltham, MA).
Calcium flux was measured using the Functional Drug Screening System (FDSS) 6000 or 7000 (Hamamatsu Corporation, Tokyo, Japan) as an increase in the fluorescent static ratio. Compounds were applied to cells (20 μL, 2×) using the automated system of the FDSS at 2 seconds into the protocol and the data were collected at 1 Hz. At 143 s, 10 μL of an EC20 concentration of the muscarinic receptor agonist acetylcholine was added (5×), followed by the addition of 12 μL of an EC80 concentration of acetylcholine at the 268 s time point (5×). Agonist activity was analyzed as a concentration-dependent increase in calcium mobilization upon compound addition. Positive allosteric modulator activity was analyzed as a concentration-dependent increase in the EC20 acetylcholine response. Antagonist activity was analyzed as a concentration-dependent decrease in the EC80 acetylcholine response; for the purposes of the tables herein, an IC50 (inhibitory concentration 50) was calculated as a concentration-dependent decrease of the response elicited by an EC80 concentration of acetylcholine. Concentration-response curves were generated using a four-parameter logistical equation in XLFit curve fitting software (IDBS, Bridgewater, NJ) for Excel (Microsoft, Redmond, WA) or Prism (GraphPad Software, Inc., San Diego, CA) or the Dotmatics software platform (Dotmatics, Bishop's Stortford, UK). […]
Compounds were synthesized as described above. Activity (IC50 and Emin) was determined in the mAChR M4 cell-based functional assay as described above and the data are shown in Table 2.

| Compound | remaining activity at 30 µM [%] | pIC50 | Human M4 Emin (% ACh maximum at 30 μM) [%] |
| --- | --- | --- | --- |
| [2H]C([2H])(C1CCOC(C)(C)C1)N1C[C@H]2C[C@H](Nc3ccc(-c4cccnc4C(F)(F)F)nn3)C[C@H]2C1 (stereo partly drawn) [Compound 43, (3aR,5s,6aS)-2-((2,2-dimethyltetrahydro-2H-pyran-4-yl)methyl-d2)-N-(6-(2-(trifluoromethyl)pyridin-3-yl)pyridazin-3-yl)octahydrocyclopenta[c]pyrrol-5-amine] | 2 | 8.59 | – |
| [2H]C1([2H])CC(CN2C[C@H]3C[C@H](Nc4nnc(-c5cnccc5C(F)(F)F)cc4OC)C[C@H]3C2)CC([2H])([2H])O1 [Compound 23, (3aR,5s,6aS)-N-(4-methoxy-6-(4-(trifluoromethyl)pyridin-3-yl)pyridazin-3-yl)-2-((tetrahydro-2H-pyran-4-yl-2,2,6,6-d4)methyl)octahydrocyclopenta[c]pyrrol-5-amine] | 2 | 8.41 | – |
| [2H]C([2H])(C1CCOCC1(C)C)N1C[C@H]2C[C@H](Nc3ccc(-c4cccnc4C(F)(F)F)nn3)C[C@H]2C1 (stereo partly drawn) [Compound 53, (3aR,5s,6aS)-2-((3,3-dimethyltetrahydro-2H-pyran-4-yl)methyl-d2)-N-(6-(2-(trifluoromethyl)pyridin-3-yl)pyridazin-3-yl)octahydrocyclopenta[c]pyrrol-5-amine] | 3 | 8.54 | – |
| [2H]C([2H])(C1CCOC(C)(C)C1)N1C[C@H]2C[C@H](Nc3ccc(-c4cnccc4C(F)(F)F)nn3)C[C@H]2C1 (stereo partly drawn) [Compound 33, (3aR,5s,6aS)-2-((2,2-dimethyltetrahydro-2H-pyran-4-yl)methyl-d2)-N-(6-(4-(trifluoromethyl)pyridin-3-yl)pyridazin-3-yl)octahydrocyclopenta[c]pyrrol-5-amine] | – | 8.38 | 7 |
| [2H]C1([2H])CC(C([2H])([2H])N2C[C@H]3C[C@H](Nc4ccc(-c5cnccc5C(F)(F)F)nn4)C[C@@]3(C)C2)CC([2H])([2H])O1 (racemic) [Compound 27, (3aR,5S,6aS)-3a-methyl-2-((tetrahydro-2H-pyran-4-yl-2,2,6,6-d4)methyl-d2)-N-(6-(4-(trifluoromethyl)pyridin-3-yl)pyridazin-3-yl)octahydrocyclopenta[c]pyrrol-5-amine and (3aS,5R,6aR)-3a-methyl-2-((tetrahydro-2H-pyran-4-yl-2,2,6,6-d4)methyl-d2)-N-(6-(4-(trifluoromethyl)pyridin-3-yl)pyridazin-3-yl)octahydrocyclopenta[c]pyrrol-5-amine] | 3 | 8.49 | – |
| [2H]C1([2H])CC(C([2H])([2H])N2C[C@H]3C[C@H](Nc4nnc(-c5cnccc5C(F)(F)F)cc4OC)C[C@H]3C2)CC([2H])([2H])O1 [Compound 22, (3aR,5s,6aS)-N-(4-methoxy-6-(4-(trifluoromethyl)pyridin-3-yl)pyridazin-3-yl)-2-((tetrahydro-2H-pyran-4-yl-2,2,6,6-d4)methyl-d2)octahydrocyclopenta[c]pyrrol-5-amine] | 2 | 8.35 | – |
| [2H]C([2H])(N1C[C@H]2C[C@H](Nc3ccc(-c4cnccc4C(F)(F)F)nn3)C[C@H]2C1)[C@@]12CCCCC[C@H]1OCC2 (racemic) [Compound 30, (3aR,5s,6aS)-2-(((3aS,8aR)-octabydro-3aH-cyclohepta[b]furan-3a-yl)methyl-d2)-N-(6-(4-(trifluoromethyl)pyridin-3-yl)pyridazin-3-yl)octahydrocyclopenta[c]pyrrol-5-amine and (3aR,5s,6aS)-2-(((3aR,8aS)-octahydro-3aH-cyclohepta[b]furan-3a-yl)methyl-d2)-N-(6-(4-(trifluoromethyl)pyridin-3-yl)pyridazin-3-yl)octahydrocyclopenta[c]pyrrol-5-amine] | 31 | 5.40 | – |

These reach a higher pIC50. Values come first.

| remaining activity at 30 µM [%] | pIC50 | Human M4 Emin (% ACh maximum at 30 μM) [%] | Compound |
| --- | --- | --- | --- |
| 3 | 8.82 | – | [2H]C1([2H])CC(C([2H])([2H])N2C[C@H]3C[C@H](Nc4ccc(-c5cccnc5C(F)(F)F)nn4)C[C@@]3(C)C2)CC([2H])([2H])O1 (racemic) [Compound 57, (3aR,5S,6aS)-3a-methyl-2-((tetrahydro-2H-pyran-4-yl-2,2,6,6-d4)methyl-d2)-N-(6-(2-(trifluoromethyl)pyridin-3-yl)pyridazin-3-yl)octahydrocyclopenta[c]pyrrol-5-amine and (3aS,5R,6aR)-3a-methyl-2-((tetrahydro-2H-pyran-4-yl-2,2,6,6-d4)methyl-d2)-N-(6-(2-(trifluoromethyl)pyridin-3-yl)pyridazin-3-yl)octahydrocyclopenta[c]pyrrol-5-amine] |
| 4 | 8.96 | – | [2H]C1([2H])CC(C([2H])([2H])N2C[C@H]3C[C@H](Nc4nnc(-c5cnccc5C(F)(F)F)cc4C)C[C@H]3C2)CC([2H])([2H])O1 [Compound 18, (3aR,5s,6aS)-N-(4-methyl-6-(4-(trifluoromethyl)pyridin-3-yl)pyridazin-3-yl)-2-((tetrahydro-2H-pyran-4-yl-2,2,6,6-d4)methyl-d2)octahydrocyclopenta[c]pyrrol-5-amine] |
| 3 | 9.15 | – | [2H]C([2H])(C1CCOCC1)N1C[C@H]2C[C@H](Nc3nnc(-c4cnccc4C(F)(F)F)c4sccc34)C[C@H]2C1 [Compound 34, N-((3aR,5s,6aS)-2-((tetrahydro-2H-pyran-4-yl)methyl-d2)octahydrocyclopenta[c]pyrrol-5-yl)-7-(4-(trifluoromethyl)pyridin-3-yl)thieno[2,3-d]pyridazin-4-amine] |
| 2 | 9.26 | – | [2H]C([2H])([C@H]1CCCCO1)N1C[C@H]2C[C@H](Nc3ccc(-c4cccnc4C(F)(F)F)nn3)C[C@H]2C1 [Compound 49, (3aR,5s,6aS)-2-(((R)-tetrahydro-2H-pyran-2-yl)methyl-d2)-N-(6-(2-(trifluoromethyl)pyridin-3-yl)pyridazin-3-yl)octahydrocyclopenta[c]pyrrol-5-amine] |
| 4 | 9.55 | – | FC(F)(F)c1ccncc1-c1ccc(N[C@H]2C[C@@H]3CN(CC4CCOCC4)C[C@@H]3C2)nn1 [Compound 1, (3aR,5s,6aS)-2-((tetrahydro-2H-pyran-4-yl)methyl)-N-(6-(4-(trifluoromethyl)pyridin-3-yl)pyridazin-3-yl)octahydrocyclopenta[c]pyrrol-5-amine] |
| 3 | 10.07 | – | [2H]C([2H])([C@@H]1CCCCO1)N1C[C@H]2C[C@H](Nc3ccc(-c4cnccc4C(F)(F)F)nn3)C[C@H]2C1 [Compound 8, (3aR,5s,6aS)-2-(((S)-tetrahydro-2H-pyran-2-yl)methyl-d2)-N-(6-(4-(trifluoromethyl)pyridin-3-yl)pyridazin-3-yl)octahydrocyclopenta[c]pyrrol-5-amine] |
